Data: PMC10301845, “Characterization of a Novel M4 PAM PET Radioligand [11C]PF06885190 in Nonhuman Primates (NHP)” (Molecules, 2023)
Read-outs that look alike come from different tables or passages of the source.

What was measured:
[1] = Radiometabolite analysis in NHP blood plasma (gradient HPLC); format: in vivo, cynomolgus monkey
Description: Radiometabolites in NHP blood plasma were analyzed following a previously published method. A reverse-phase HPLC system with an UV absorbance detector (ƛ = 254 nm) coupled to a radio detector was used to determine the percentages of radioactivity corresponding to [^11C]PF06885190 and its radioactive metabolites during whole PET measurement. Arterial blood samples (0.7–1.5 mL) were obtained using an automated blood sampling system from the monkey at different time points such as 2, 5, 15, 30 and 60 min after injection of [^11C]PF06885190 following a previously described method. Plasma was separated from collected blood by centrifuging at 4000 rpm for 2 min. The obtained plasma was diluted with 1.4 times volume of acetonitrile and then centrifuged at 6000 rpm for 4 min. The extract was separated from the pellet and was diluted with water (3 mL) before being injected into the HPLC system. The HPLC system was coupled to an Agilent binary pump (Agilent 1200 series) which was connected to a manual injection valve (7725i, Rheodyne), a 5.0 mL loop, and a radiation detector (Oyokoken, S-2493Z) housed in a shield of 50 mm thick lead. A semi-preparative reverse-phase, an ACE 5µm C18 HL column ([…]), was used to achieve the chromatographic separation (Figure S4A,B, Supplementary Material) of the radiometabolites from the unchanged parent compound [^11C]PF06885190 by gradient elution. Acetonitrile (A) and 0.1 M amoniumformate (B) were used as the mobile phase at flow rate 5.0 mL/min, according to the following program: 0−4.0 min, (A/B) 40:60 → 90:10 v/v; 4.0−6.0 min, (A/B) 90:10 v/v. a radioactive peak corresponding to [^11C]PF06885190 eluted from the HPLC column was integrated and the area was expressed as a percentage of the sum of the areas of all detected radioactive compounds. To calculate the recovery of radioactivity from the system, the eluate from the HPLC column was measured in a capintec dose calibrator and divided by the amount of total radioactivity injected into the HPLC.

[2] = Protein binding in plasma (ultrafiltration); format: in vitro ADME, monkey; settings: male, cynomolgus, monkey, plasma, read-out: free fraction in plasma
Description: (§1) The free fraction (fp) in blood plasma was measured using an ultrafiltration method with the blood sample collected before the injection of [^11C]PF06885190. Plasma (0.4 mL) was mixed with [^11C]PF06885190 formulation (0.04 mL, ~1 MBq) and incubated at room temperature (RT) for 10 min. To estimate the non-specific binding percent, the same process was performed on phosphate buffered saline (PBS) (0.4 mL) as a control solution. After the incubation, 0.2 mL of the plasma and PBS incubated mixtures were pipetted into ultrafiltration tubes (Centrifree YM-30, molecular weight cutoff, 30,000 Da; Millipore: Billerica, MA, USA) and centrifuged at 3800 rpm for 15 min. Equal aliquots (0.02 mL) of the ultrafiltrate (Cfree) and the plasma (Ctotal) were counted for their radioactivity with a NaI well-counter. Each determination was performed in triplicate. The free fraction was then calculated as fp = Cfree/Ctotal, and the results were corrected for the membrane binding measured with the control samples.

monkey plasma proteins = experiment: Protein binding in plasma (ultrafiltration); format: in vitro ADME
Description: as §1

[3] = Stability of the radioligand in the formulation (analytical HPLC); format: physicochemical; settings: sterile PBS formulation; up to 60 min / 1 h after end of synthesis
Description: The radiochemical purity and stability of [^11C]PF06885190 was determined by an analytical HPLC system coupled with an analytical XBridge column (C18 5 µm, 4.6 × 150 mm particle size), a Merck Hitachi L-7100 Pump, a L-7400 UV detector and a GM-tube for radioactivity detection (VWR International). A mixture of acetonitrile (30%) and HCO2NH4 (0.1 M aq. solution) (70%) with a flow rate of 2 mL/min was used as the HPLC isocratic mobile phase. The HPLC elution profile was monitored with an UV absorbance detector (ƛ = 254 nm) coupled to a radioactive detector (BETA-flow, Beckman, Fullerton, CA). [^11C]PF-06885190 was eluted with a retention time of (tR) 4.0–4.5 min (Figure S3, Supplementary Material) and the run time of the HPLC program was 8 min. The identity of the radiolabeled compounds was confirmed by HPLC with the co-injection of the corresponding authentic reference standard. The MA was calculated by analytical HPLC following the method described previously reported.

[4] = after pretreatment with donepezil

- parent compound in plasma ([1]; 5 min after injection): approximately 95%
- parent compound in plasma ([1]; 60 min, after pretreatment with CVL-231): about 20%
- parent compound in plasma ([1]; 60 min, after pretreatment with donepezil): about 30%
- parent compound in plasma ([1]; 60 min, baseline condition): about 20%
- fraction unbound at 10 min [2, 4]: 0.121
- fraction unbound at 10 min ([2]; baseline): 0.248
- Binding to monkey plasma proteins (monkey plasma proteins; [4]): 87.9 ± 0.3%
- Binding to monkey plasma proteins (monkey plasma proteins; baseline): 75.2 ± 4.2%
- stability in formulation, radiochemical purity [3]: exceeding 99%
Compound: Cc1nc(N[11CH3])c2c(c1C)CN(C(=O)C[C@H]1C[C@@H]1c1ccc(F)nc1)C2 [[^11C]PF06885190]
